Laboratory results from patent US10681909B2, “Herbicidal triazoles” (FMC Corporation, priority 2014, dated 2020).

What was measured:
wheat, spring = experiment: Test D preemergence; assay type: in vivo, Triticum aestivum; conditions: scale 0 to 100
Description: (§1) Seeds of plant species selected from bluegrass (annual bluegrass, Poa annua), blackgrass (Alopecurus myosuroides), canarygrass (Phalaris minor), chickweed (common chickweed, Stellaria media), galium (catchweed bedstraw, Galium aparine), bromegrass, down (downy bromegrass, Bromus tectorum), Russian thistle (Salsola kali), field poppy (Papaver rhoeas), field violet (Viola arvensis), foxtail, green (green foxtail, Setaria viridis), deadnettle (henbit deadnettle, Lamium amplexicaule), ryegrass, Ital. (Italian ryegrass, Lolium multiflorum), kochia (Kochia scoparia), lambsquarters (Chenopodium album), oilseed rape (Brassica napus), pigweed (Amaranthus retroflexus), chamomile (scentless chamomile, Matricaria inodora), speedwell (bird's-eye speedwell, Veronica persica), barley, spring (spring barley, Hordeum vulgare), wheat, spring (spring wheat, Triticum aestivum), buckwheat, wild (wild buckwheat, Polygonum convolvulus), wild mustard (Sinapis arvensis), oat, wild (wild oat, Avena fatua), radish, wild (wild radish, Raphanus raphanistrum), […]), barley, winter (winter barley, Hordeum vulgare), and wheat, winter (winter wheat, Triticum aestivum) were planted into a silt loam soil and treated preemergence with test chemicals formulated in a non-phytotoxic solvent mixture which included a surfactant. At the same time, these species were planted in pots containing Sunshine Redi-Earth® planting medium comprising spaghnum peat moss, vermiculite, starter nutrients and dolomitic limestone and treated with postemergence applications of the test chemicals formulated in the same manner. Plants ranged in height from 2 to 18 cm (1- to 4-leaf stage). Treated plants and controls were maintained in a controlled growth environment for 14 to 21 d after which time all species were compared to controls and visually evaluated. […] A dash (-) response means no test result.

wheat, winter = experiment: Test D preemergence; assay type: in vivo, Triticum aestivum; conditions: scale 0 to 100
Description: as §1

crabgrass, large = experiment: Test A preemergence; assay type: in vivo, Digitaria sanguinalis; conditions: Digitaria sanguinalis, pre-emergence, 240 h, 0 to 100 scale (0 no effect, 100 complete control), read-out: Plant response rating, Crabgrass, Large; for pest or weed control at 125 g/ha: 125 g ai/ha; for pest or weed control at 500 g/ha: 500 g ai/ha, approx. 10 d
How it was run: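 Herbicidal response was scored on plants treated pre- or postemergence with surfactant-containing, non-phytotoxic solvent formulations. Preemergence meant a directed spray onto soil (loam–sand) holding sown seed; postemergence plants were at one to two leaves.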

deadnettle = experiment: Test D preemergence; assay type: in vivo, Lamium amplexicaule; conditions: scale 0 to 100
Description: as §1

corn = experiment: Test C preemergence; assay type: in vivo, Zea mays; conditions: for Plant response rating (scale of 0 to 100 where 0 is no effect and 100 is complete control): Corn, preemergence; for Corn plant response rating (0 to 100): Preemergence, visual rating after 13 to 15 d
Description: Seeds of plant species selected from blackgrass (Alopecurus myosuroides), ryegrass, Italian (Italian ryegrass, Lolium multiflorum), wheat (winter wheat, Triticum aestivum), galium (catchweed bedstraw, Galium aparine), corn (Zea mays), crabgrass, large (large crabgrass, Digitaria sanguinalis), foxtail, giant, (giant foxtail, Setaria faberii), johnsongrass (Sorghum halepense), lambsquarters (Chenopodium album), morningglory (Ipomoea coccinea), nutsedge, yellow (yellow nutsedge, Cyperus esculentus), pigweed (Amaranthus retroflexus), ragweed (common ragweed, Ambrosia elatior), soybean (Glycine max), barnyardgrass (Echinochloa crus-galli), oilseed rape (Brassica napus), waterhemp (common waterhemp, Amaranthus rudis), and velvetleaf (Abutilon theophrasti) were planted into a blend of loam soil and sand and treated preemergence with test chemicals formulated in a non-phytotoxic solvent mixture which included a surfactant. At the same time, plants selected from these crop and weed species and also chickweed (common chickweed, Stellaria media), oat, wild (wild oat, Avena fatua), and kochia (Kochia scoparia), were planted in pots containing Sunshine Redi-Earth® planting medium comprising spaghnum peat moss, vermiculite, starter nutrients and dolomitic limestone and treated with postemergence applications of test chemicals formulated in the same manner. Plants ranged in height from 2 to 18 cm (1- to 4-leaf stage) for postemergence treatments. […] A dash (-) response means no test result.

field poppy = experiment: Test D postemergence; assay type: in vivo, Papaver rhoeas; conditions: scale 0 to 100
Description: as §1

kochia [1] = experiment: Test A postemergence; assay type: in vivo, Kochia scoparia; conditions: 0 to 100 scale (0 no effect, 100 complete control), approx. 10 d
Description: (§2) Seeds of plant species selected from barnyardgrass (Echinochloa crus-galli), crabgrass, large (large crabgrass, Digitaria sanguinalis), kochia (Kochia scoparia), ragweed (common ragweed, Ambrosia elatior), foxtail, giant (giant foxtail, Setaria faberii), morningglory (Ipomoea spp.), pigweed (Amaranthus retroflexus), velvetleaf (Abutilon theophrasti), ryegrass, Italian (Italian ryegrass, Lolium multiflorum), wheat (Triticum aestivum), and corn (Zea mays) were planted into a blend of loam soil and sand and treated preemergence with a directed soil spray using test chemicals formulated in a non-phytotoxic solvent mixture which included a surfactant.
(§3) At the same time, plants selected from these crop and weed species and also blackgrass (Alopecurus myosuroides), and galium (catchweed bedstraw, Galium aparine), were planted in pots containing the same blend of loam soil and sand and treated with postemergence applications of test chemicals formulated in the same manner. Plants ranged in height from 2 to 10 cm and were in the one- to two-leaf stage for the postemergence treatment. Treated plants and untreated controls were maintained in a greenhouse for approximately 10 d, after which time all treated plants were compared to untreated controls and visually evaluated for injury. Plant response ratings, summarized in Table A, are based on a 0 to 100 scale where 0 is no effect and 100 is complete control. A dash (-) response means no test result.

kochia [2] = experiment: Test A preemergence; assay type: in vivo, Kochia scoparia; conditions: 0 to 100 scale (0 no effect, 100 complete control)
Description: as §2, §3

CCc1nc(-c2ccc(C(F)(F)F)cc2)nn1Cc1ccnc(C(F)(F)F)c1 [Compound 1, 4-[[5-ethyl-3-[4-(trifluoromethyl)phenyl]-1H-1,2,4-triazol-1-yl]methyl]-2-(trifluoromethyl)pyridine]
Plant response rating: Wheat, Spring (wheat, spring; 62 g ai/ha): 0 | Plant response rating: Wheat, Spring (wheat, spring; 125 g ai/ha): 0 | Plant response rating: Wheat, Spring (wheat, spring; 250 g ai/ha): 5 | Plant response rating: Wheat, Winter (wheat, winter; 62 g ai/ha): 0 | Plant response rating: Wheat, Winter (wheat, winter; 125 g ai/ha): 0 | Plant response rating: Wheat, Winter (wheat, winter; 250 g ai/ha): 0 | pest or weed control at 125 g/ha (crabgrass, large): 100% | pest or weed control at 500 g/ha (crabgrass, large): 100% | Plant response rating: Deadnettle (deadnettle; 31 g ai/ha): 100 | Plant response rating: Deadnettle (deadnettle; 62 g ai/ha): 100 | Plant response rating: Deadnettle (deadnettle; 125 g ai/ha): 100 | Plant response rating: Deadnettle (deadnettle; 250 g ai/ha): 100 | Plant response rating (scale of 0 to 100 where 0 is no effect and 100 is complete control) (corn; 125 g ai/ha): 25 | Plant response rating (scale of 0 to 100 where 0 is no effect and 100 is complete control) (corn; 250 g ai/ha): 40 | Corn plant response rating (0 to 100) (corn; 31 g ai/ha): 5 | Corn plant response rating (0 to 100) (corn; 62 g ai/ha): 15 | Plant response rating: Field Poppy (field poppy; 31 g ai/ha): 70 | Plant response rating: Field Poppy (field poppy; 62 g ai/ha): 100 | Plant response rating: Field Poppy (field poppy; 125 g ai/ha): 100 | Plant response rating: Field Poppy (field poppy; 250 g ai/ha): 100

Cn1nc(-c2ccc(F)cc2)nc1Oc1cccc(C(F)(F)F)c1 [Compound 5, 3-(4-fluorophenyl)-1-methyl-5-[3-(trifluoromethyl)phenoxy]-1H-1,2,4-triazole]
pest or weed control at 125 g/ha (crabgrass, large): 70% | pest or weed control at 500 g/ha (crabgrass, large): 100%

CCCc1nc(-c2ccc(F)cc2)nn1Cc1ccnc(C(F)(F)F)c1 [Compound 6, 4-[[3-(4-fluorophenyl)-5-propyl-1H-1,2,4-triazol-1-yl]methyl]-2-(trifluoromethyl)pyridine]
pest or weed control at 125 g/ha (crabgrass, large): 100% | pest or weed control at 500 g/ha (crabgrass, large): 100% | Plant response rating (scale of 0 to 100 where 0 is no effect and 100 is complete control) (corn; 125 g ai/ha): 50 | Plant response rating (scale of 0 to 100 where 0 is no effect and 100 is complete control) (corn; 250 g ai/ha): 50 | Corn plant response rating (0 to 100) (corn; 31 g ai/ha): 15 | Corn plant response rating (0 to 100) (corn; 62 g ai/ha): 35

CCOc1nc(-c2ccc(F)cc2)nn1Cc1ccnc(C(F)(F)F)c1 [Compound 8, 4-[[5-ethoxy-3-(4-fluorophenyl)-1H-1,2,4-triazol-1-yl]methyl]-2-(trifluoromethyl)pyridine]
Plant response rating: Wheat, Spring (wheat, spring; 62 g ai/ha): 15 | Plant response rating: Wheat, Spring (wheat, spring; 125 g ai/ha): 35 | Plant response rating: Wheat, Spring (wheat, spring; 250 g ai/ha): 70 | Plant response rating: Wheat, Winter (wheat, winter; 62 g ai/ha): 25 | Plant response rating: Wheat, Winter (wheat, winter; 125 g ai/ha): 40 | Plant response rating: Wheat, Winter (wheat, winter; 250 g ai/ha): 65 | pest or weed control at 125 g/ha (crabgrass, large): 100% | pest or weed control at 500 g/ha (crabgrass, large): 100% | Plant response rating: Deadnettle (deadnettle; 31 g ai/ha): 100 | Plant response rating: Deadnettle (deadnettle; 62 g ai/ha): 100 | Plant response rating: Deadnettle (deadnettle; 125 g ai/ha): 100 | Plant response rating: Deadnettle (deadnettle; 250 g ai/ha): 100 | Plant response rating (scale of 0 to 100 where 0 is no effect and 100 is complete control) (corn; 125 g ai/ha): 65 | Plant response rating (scale of 0 to 100 where 0 is no effect and 100 is complete control) (corn; 250 g ai/ha): 65 | Corn plant response rating (0 to 100) (corn; 31 g ai/ha): 35 | Corn plant response rating (0 to 100) (corn; 62 g ai/ha): 55 | Plant response rating: Field Poppy (field poppy; 31 g ai/ha): 80 | Plant response rating: Field Poppy (field poppy; 62 g ai/ha): 90 | Plant response rating: Field Poppy (field poppy; 125 g ai/ha): 95 | Plant response rating: Field Poppy (field poppy; 250 g ai/ha): 100

COc1nc(-c2ccc(F)cc2)nn1Cc1ccnc(C(F)(F)F)c1 [Compound 9, 4-[[3-(4-fluorophenyl)-5-methoxy-1H-1,2,4-triazol-1-yl]methyl]-2-(trifluoromethyl)pyridine]
pest or weed control at 125 g/ha (crabgrass, large): 100% | pest or weed control at 500 g/ha (crabgrass, large): 100% | Plant response rating (scale of 0 to 100 where 0 is no effect and 100 is complete control) (corn; 125 g ai/ha): 25 | Plant response rating (scale of 0 to 100 where 0 is no effect and 100 is complete control) (corn; 250 g ai/ha): 55 | Corn plant response rating (0 to 100) (corn; 31 g ai/ha): 0 | Corn plant response rating (0 to 100) (corn; 62 g ai/ha): 5

Cn1nc(-c2ccc(F)cc2)nc1C(O)c1ccnc(C(F)(F)F)c1 (stereo not drawn) [Compound 14, α-[3-(4-fluorophenyl)-1-methyl-1H-1,2,4-triazol-5-yl]-2-(trifluoromethyl)-4-pyridinemethanol]
pest or weed control at 125 g/ha (crabgrass, large): 60% | pest or weed control at 500 g/ha (crabgrass, large): 100%

CCn1nc(-c2ccc(F)cc2)nc1C(O)c1ccnc(C(F)(F)F)c1 (stereo not drawn) [Compound 15, α-[1-Ethyl-3-(4-fluorophenyl)-1H-1,2,4-triazol-5-yl]-2-(trifluoromethyl)-4-pyridinemethanol]
pest or weed control at 125 g/ha (crabgrass, large): 10% | pest or weed control at 500 g/ha (crabgrass, large): 30%

CCCn1nc(-c2ccc(F)cc2)nc1Cc1ccnc(C(F)(F)F)c1 [Compound 17, 4-[[3-(4-fluorophenyl)-1-propyl-1H-1,2,4-triazol-5-yl]methyl]-2-(trifluoromethyl)pyridine]
pest or weed control at 125 g/ha (crabgrass, large): 100% | pest or weed control at 500 g/ha (crabgrass, large): 100%

CCn1nc(-c2ccc(F)cc2)nc1C(=O)c1ccnc(C(F)(F)F)c1 [Compound 19, [1-ethyl-3-(4-fluorophenyl)-1H-1,2,4-triazol-5-yl][2-(trifluoromethyl)-4-pyridinyl]methanone]
pest or weed control at 125 g/ha (crabgrass, large): 0% | pest or weed control at 500 g/ha (crabgrass, large): 50%

COc1nc(-c2ccc(C(F)(F)F)cc2)nn1Cc1ccnc(C(F)(F)F)c1 [Compound 25]
Plant response rating, Kochia (kochia [1]; 31 g ai/ha): 90 | Plant response rating, Kochia (kochia [1]; 125 g ai/ha): 90 | Plant response rating, Kochia (kochia [2]; 31 g ai/ha): 20 | Plant response rating, Kochia (kochia [2]; 125 g ai/ha): 80

CCOc1nc(-c2ccc(Cl)cc2)nn1Cc1ccnc(C(F)(F)F)c1 [Compound 26]
Plant response rating, Kochia (kochia [1]; 31 g ai/ha): 80 | Plant response rating, Kochia (kochia [1]; 125 g ai/ha): 90 | Plant response rating, Kochia (kochia [2]; 31 g ai/ha): 60 | Plant response rating, Kochia (kochia [2]; 125 g ai/ha): 90

CS(=O)(=O)c1nc(-c2ccc(F)cc2)nn1Cc1ccnc(C(F)(F)F)c1 [Compound 29, 4-[[3-(4-fluorophenyl)-5-(methylsulfonyl)-1H-1,2,4-triazole-1-yl]methyl]-2-(trifluoromethyl)pyridine]
pest or weed control at 125 g/ha (crabgrass, large): 0% | pest or weed control at 500 g/ha (crabgrass, large): 0%

COc1nc(-c2ccccc2)nn1Cc1ccnc(C(F)(F)F)c1 [Compound 32]
Plant response rating, Kochia (kochia [1]; 125 g ai/ha): 80 | Plant response rating, Kochia (kochia [1]; 500 g ai/ha): 90 | Plant response rating (scale of 0 to 100 where 0 is no effect and 100 is complete control) (corn; 125 g ai/ha): 5 | Plant response rating (scale of 0 to 100 where 0 is no effect and 100 is complete control) (corn; 250 g ai/ha): 20 | Corn plant response rating (0 to 100) (corn; 31 g ai/ha): 0 | Corn plant response rating (0 to 100) (corn; 62 g ai/ha): 0 | Plant response rating, Kochia (kochia [2]; 125 g ai/ha): 100 | Plant response rating, Kochia (kochia [2]; 500 g ai/ha, approx. 10 d): 100

CCCOc1nc(-c2ccccc2)nn1Cc1ccnc(C(F)(F)F)c1 [Compound 33]
Plant response rating, Kochia (kochia [1]; 125 g ai/ha): 90 | Plant response rating, Kochia (kochia [1]; 500 g ai/ha): 90 | Plant response rating, Kochia (kochia [2]; 125 g ai/ha): 60 | Plant response rating, Kochia (kochia [2]; 500 g ai/ha, approx. 10 d): 90
